According to patent publication US20100316712A1, “PHARMACEUTICAL COMPOSITIONS FOR TREATMENT OF PARKINSON'S DISEASE AND RELATED DISORDERS” (Combinatorx, Incorporated, priority 2006, published 2010):
Like-named read-outs stand apart in the source and are kept apart here.

Assays:
[1] = doses of 400 mg per day; cited from earlier work
[2] = in vivo; cited from earlier work
[3] = Plasma carbidopa and levodopa after SINEMET CR alone or after carbidopa pre-dosing; type: in vivo; settings: fed beagle dogs; for AUC(0-t): beagle, dog, plasma, po, read-out: AUC0-24; for increase in AUC0-24 / increase in peak concentrations: carbidopa pre-dosing + SINEMET CR vs SINEMET CR alone
Description: The following experiment was designed to determine if effective levodopa concentration in vivo is increased at the presence of a higher ratio of carbidopa to levodopa (as compared to that used in conventional therapy).
SINEMET® CR tablets (50 mg carbidopa/200 mg levodopa) were administered to fed beagle dogs either alone or after pre-dosing with 12.5 mg and 25 mg of carbidopa, and plasma concentrations of carbidopa and levodopa were measured over time (data not shown).

[4] = Carbidopa 12.5 mg pre-dose + SINEMET CR
[5] = Carbidopa 25 mg pre-dose + SINEMET CR
[6] = SINEMET CR (50 mg carbidopa/200 mg levodopa) alone

| AUC(0-t) [3, 4] | AUC(0-t) [3, 5] | AUC(0-t) [3, 6] | increase in AUC0-24 [3] | increase in peak concentrations [3] | SMILES | adverse effects [1] | fraction of an administered dose absorbed [2] |
| --- | --- | --- | --- | --- | --- | --- | --- |
| 592 ± 303 ng·h/mL | 956 ± 534 ng·h/mL | 215 ± 43 ng·h/mL | ~100% | ~100% | C[C@@](Cc1ccc(O)c(O)c1)(NN)C(=O)O [Carbidopa] | fails to elicit adverse effects | About 70% |
| 8640 ± 2060 ng·h/mL | 7000 ± 3830 ng·h/mL | 3900 ± 298 ng·h/mL | ~100% | ~100% | N[C@@H](Cc1ccc(O)c(O)c1)C(=O)O [Levodopa, L-3,4-dihydroxyphenylalanine] | – | – |
